Several values for one entry are separate records, joined by “and”; a condition that tells them apart may be missing. Equal entries are not always repeated.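 Results reflect a 48-hour exposure of cells in 96-well plates to compound at five concentrations. GI50: concentration for 50% inhibition of growth. TGI marks complete inhibition of growth.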
Each compound was assayed on MDA-MB-468 breast (assay: DTP human tumour cell line panel, 48 h).

Structure (SMILES) | GI50 | TGI
COc1cccc2c1-c1ccccc1C2=O | 0.346 µM | 21.3 µM
O=C(Nc1cccc(-c2cccc(F)c2)c1)C1CCN(Cc2cccc3cccnc23)CC1 | 1.76 µM | 3.46 µM
CN([O-])c1nc(N(C)[O-])nc(N2CCOCC2)n1.CN([O-])c1nc(N(C)[OH2+])nc(N2CCOCC2)n1.[Fe+3] | 45.4 µM | > 100 µM
O=C(N/N=C\c1c(O)ccc2ccccc12)C1CC1 | 3.16 µM | 8.68 µM
CC(C)[C@]12O[C@H]1[C@@H]1O[C@]13[C@]1(O[C@H]1C[C@H]1C4=C(CC[C@@]13C)C(=O)OC4)[C@@H]2OC(=O)CN(C)C | 0.0183 µM | 0.0524 µM
O=C(O)CCCn1c(SCc2c(Cl)cccc2Cl)nc2ccsc2c1=O | 0.24 µM | > 100 µM
Cn1cc(C2=C(c3cn(CCCO)c4ccccc34)C(=O)NC2=O)c2ccccc21 | 2.25 µM | 18.4 µM
C[C@@H](O)[C@H]1C(=O)N2C(C(=O)O)=C(SCCN=CN)C[C@H]12 | 1.1 µM | 2.73 µM
Nc1nc(N)c2cc(CNc3ccc(C(=O)NC(CC(=O)O)C(=O)O)cc3)ccc2n1 (centres undefined) | 0.941 µM | –
C1CN1c1nc(N2CC2)nc(N2CC2)n1 | 4.83 µM | 19.2 µM
CN1CCN(c2ccc3nc(-c4c5cccccc-5[nH]c4=O)[nH]c3c2)CC1 | 15.4 µM | 34.2 µM
O[N+]1=CC=CCC1=S.On1ccccc1=S.[Zn] | 0.584 µM | 1.6 µM
Cc1cc(Nc2cccc(F)c2)nc(NCc2ccccc2)n1 | 2.17 µM | 7.75 µM
Cc1c2cnccc2c(C)c2c1c1cc(CO)ccc1n2C | 0.151 µM | 0.42 µM
COc1ccc(S(=O)(=O)Nc2cc(/C=C\c3cc(OC)c(OC)c(OC)c3)cc(OC)c2OC)cc1 | 0.042 µM | > 100 µM
NC(=O)c1cccc(N2Cc3ccccc3OC3=C2C(=O)c2c(O)ccc(O)c2C3=O)c1 | 0.195 µM | 0.425 µM
CCCCCCCCCCCC[n+]1c(C)cc(N)c2ccccc21 | 0.206 µM | 0.76 µM
FC(F)(F)c1cccc(Nc2nc3ccccc3nc2Nc2cccc(C(F)(F)F)c2)c1 | 1.53 µM | 3.56 µM
Cc1ccc(-c2cc(C(=O)N3N=C(c4ccc(N)cc4)CC3c3ccc(Cl)cc3)c3ccccc3n2)cc1 (centres undefined) | 4.91 µM | > 100 µM
Cc1nc2cc(-n3c(-c4ccc(F)cc4)nc4ccccc4c3=O)ccc2n1Cc1ccccc1 | 2 µM | 4.95 µM
CC(=O)c1cc2c(c(O)c1C)C(=O)C(=O)c1c(O)cccc1-2 | 0.198 µM | 0.495 µM
CCN(CC)c1ccc(/C=C2\SC(=O)C(Nc3nnc(-c4cccnc4SCc4ccccc4)o3)C2=O)cc1 (centres undefined) | 3.23 µM | 11.8 µM
CCCCCCNC(=O)Nc1ccc2cc3ccc(NC(=O)NCCCCCC)cc3nc2c1 | 1.62 µM | 3.73 µM
CC(Nc1c(C#N)cnc2ccc(-c3cnc(N)nc3)cc12)c1ccccc1 (centres undefined) | 0.396 µM | 3.34 µM
COc1ccc(/C=C/C(=O)c2cccc(B(O)O)c2)cc1O | 2.86 µM | 21 µM
CC(=O)OC[C@]1(C)C=C2C(=O)[C@](C)(O)C3(CC3)C(C)=C2[C@H]1OC(=O)N(C)CCN(C)C(=O)OC(C)(C)C | 0.519 µM | 1.2 µM
COC(=O)C(N)CSC(c1ccccc1)(c1ccccc1)c1ccccc1 (centres undefined) | 0.336 µM | 2.74 µM
CN(C)c1ccc2nc3ccc(N)cc3[n+](-c3ccccc3)c2c1 | 0.179 µM and 1.74 µM | 1.54 µM and 7.28 µM
COc1ccc2nc3cc(Cl)ccc3c(NCCCCCN3CCCCC3)c2c1 | 1.21 µM | 2.58 µM
COC(=O)[C@@H](C[C@H](Cc1ccccc1)NC(=O)c1csc([C@@H](C[C@H](C(C)C)N(C)C(=O)[C@@H](NC(=O)[C@H]2CCCCN2C)C(C)C)OC(C)=O)n1)NC(=O)OCc1ccccc1 | < 0.000833 µM | < 0.000833 µM

— PubChem BioAssay (NCI)
